Results as given in PubChem BioAssay AID1963964 (Molecular Pharmacology Branch, DTP, NCI, 2024).

System: 997726-040-R-J2-PDC tumor spheroids, viability
Assay: Anticancer human tumor 997726-040-R-J2-PDC patient-derived squamous cell lung carcinoma cell line growth inhibition [PI3K]
Conditions: spheroids with HUVEC and MSC; for viability, T/C: stronger effect = lower value
Summary of the method: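 Combination activity was assessed by viability in multicellular tumor spheroids carrying HUVEC and MSC components. Agents were tested with PI3K inhibitors from a Cmax-based top dose (or 10 microM) downward in half-log increments.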
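Note: spheroids exposed to compounds for seven days before readout.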

Structure (SMILES): CC(Cn1ccc(-c2ccc(C#N)c(Cl)c2)n1)NC(=O)c1cc(C(C)O)[nH]n1 (centres undefined)
- viability, T/C (compound 0.0316 µM): 101% [middle of 4 runs]
- viability, T/C (compound 0.1 µM): 103% [middle of 4 runs]
- viability, T/C (compound 0.316 µM): 105% [middle of 4 runs]
- viability, T/C (compound 1 µM): 100% [middle of 4 runs]
- viability, T/C (compound 3.16 µM): 107% [middle of 4 runs]
- viability, T/C (compound 10 µM): 96.3% [middle of 4 runs]
- IC50 (curve of compound): > 10000 nM

Structure (SMILES): Cn1ncc(Cl)c1-c1cc(C(=O)NC(CN)Cc2cccc(F)c2)sc1Cl (centres undefined) + CC(Nc1ncnc2nc[nH]c12)c1cc2cccc(Cl)c2c(=O)n1-c1ccccc1
- IC50 (curve of first compound, second compound 0.0316 µM): 112 nM
- IC50 (curve of first compound, second compound 0.1 µM): 118 nM
- IC50 (curve of first compound, second compound 0.316 µM): 113 nM
- IC50 (curve of first compound, second compound 1 µM): 128 nM
- IC50 (curve of first compound, second compound 3.16 µM): 76.9 nM
- IC50 (curve of first compound, second compound 10 µM): 36.3 nM
- viability, T/C (second compound 0.0316 µM, first compound 0.0316 µM): 79.2%
- viability, T/C (second compound 0.0316 µM, first compound 0.1 µM): 52.6%
- viability, T/C (second compound 0.0316 µM, first compound 0.316 µM): 26.7%
- viability, T/C (second compound 0.0316 µM, first compound 1 µM): 16.1%
- viability, T/C (second compound 0.0316 µM, first compound 3.16 µM): 9.99%
- viability, T/C (second compound 0.0316 µM, first compound 10 µM): 12.3%
- viability, T/C (second compound 0.1 µM, first compound 0.0316 µM): 71.1%
- viability, T/C (second compound 0.1 µM, first compound 0.1 µM): 52.8%
- viability, T/C (second compound 0.1 µM, first compound 0.316 µM): 30.5%
- viability, T/C (second compound 0.1 µM, first compound 1 µM): 14.9%
- viability, T/C (second compound 0.1 µM, first compound 3.16 µM): 10.7%
- viability, T/C (second compound 0.1 µM, first compound 10 µM): 12.4%
- viability, T/C (second compound 0.316 µM, first compound 0.0316 µM): 78.2%
- viability, T/C (second compound 0.316 µM, first compound 0.1 µM): 52.8%
- viability, T/C (second compound 0.316 µM, first compound 0.316 µM): 26.3%
- viability, T/C (second compound 0.316 µM, first compound 1 µM): 16%
- viability, T/C (second compound 0.316 µM, first compound 3.16 µM): 11.8%
- viability, T/C (second compound 0.316 µM, first compound 10 µM): 13.8%
- viability, T/C (second compound 1 µM, first compound 0.0316 µM): 72.7%
- viability, T/C (second compound 1 µM, first compound 0.1 µM): 56.5%
- viability, T/C (second compound 1 µM, first compound 0.316 µM): 26.7%
- viability, T/C (second compound 1 µM, first compound 1 µM): 16.8%
- viability, T/C (second compound 1 µM, first compound 3.16 µM): 12.7%
- viability, T/C (second compound 1 µM, first compound 10 µM): 12.7%
- viability, T/C (second compound 3.16 µM, first compound 0.0316 µM): 66.1%
- viability, T/C (second compound 3.16 µM, first compound 0.1 µM): 44.6%
- viability, T/C (second compound 3.16 µM, first compound 0.316 µM): 27.8%
- viability, T/C (second compound 3.16 µM, first compound 1 µM): 15.2%
- viability, T/C (second compound 3.16 µM, first compound 3.16 µM): 12.2%
- viability, T/C (second compound 3.16 µM, first compound 10 µM): 12.8%
- viability, T/C (second compound 10 µM, first compound 0.0316 µM): 51.5%
- viability, T/C (second compound 10 µM, first compound 0.1 µM): 38.8%
- viability, T/C (second compound 10 µM, first compound 0.316 µM): 21.2%
- viability, T/C (second compound 10 µM, first compound 1 µM): 13.3%
- viability, T/C (second compound 10 µM, first compound 3.16 µM): 10%
- viability, T/C (second compound 10 µM, first compound 10 µM): 9.74%
